# How the values were obtained:
# Test in all cases: relative viability (nuclei count vs DMSO), 5 days (fraction); higher = more cells survive
# [1] = compound: CCN(CC)CCNC(=O)c1c(C)[nH]c(/C=C2\C(=O)Nc3ccc(F)cc32)c1C [Sunitinib] + CCNC(=O)c1noc(-c2cc(C(C)C)c(O)cc2O)c1-c1ccc(CN2CCOCC2)cc1 [Luminespib] (partner 0.01 µM)
# Outline: (§1)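 Lung cancer cell lines, seeded in 1536-well plates, were treated the following day by pin tool with a single drug or with five library-drug doses (not always all listed) in √10 steps on top of a fixed anchor-drug dose. Cells were fixed and nuclei stained in one step after 5 days, and nuclei were counted. Relative viability is the nuclei count for treated wells divided by that for vehicle wells, reported as medians of duplicate plates.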
# [2] = compound: CCN(CC)CCNC(=O)c1c(C)[nH]c(/C=C2\C(=O)Nc3ccc(F)cc32)c1C [Sunitinib] + CS(=O)(=O)N1CCN(Cc2cc3nc(-c4cccc5[nH]ncc45)nc(N4CCOCC4)c3s2)CC1 [Pictilisib] (partner 1 µM)
# Outline: as §1
# [3] = compound: CCN(CC)CCNC(=O)c1c(C)[nH]c(/C=C2\C(=O)Nc3ccc(F)cc32)c1C [Sunitinib] + CC(=O)c1c(C)c2cnc(Nc3ccc(N4CCNCC4)cn3)nc2n(C2CCCC2)c1=O [Palbociclib] (partner 0.5 µM)
# Outline: as §1
# [4] = compound: CCN(CC)CCNC(=O)c1c(C)[nH]c(/C=C2\C(=O)Nc3ccc(F)cc32)c1C [Sunitinib] + COc1cccc2cc(-c3nc([C@H]4CC[C@H](C(=O)O)CC4)n4ncnc(N)c34)[nH]c12 [OSI-027] (partner 0.5 µM)
# Outline: as §1
Cell Line,relative viability ([1]; first compound 0.02 µM),relative viability ([1]; first compound 0.06325 µM),relative viability ([1]; first compound 0.2 µM),relative viability ([1]; first compound 0.6325 µM),relative viability ([1]; first compound 2 µM),relative viability ([2]; first compound 0.02 µM),relative viability ([2]; first compound 0.06325 µM),relative viability ([2]; first compound 0.2 µM),relative viability ([2]; first compound 0.6325 µM),relative viability ([2]; first compound 2 µM),relative viability ([3]; first compound 0.02 µM),relative viability ([3]; first compound 0.2 µM),relative viability ([3]; first compound 0.6325 µM),relative viability ([3]; first compound 2 µM),relative viability ([4]; first compound 0.02 µM),relative viability ([4]; first compound 0.06325 µM),relative viability ([4]; first compound 0.2 µM),relative viability ([4]; first compound 0.6325 µM),relative viability ([4]; first compound 2 µM),relative viability ([3]; first compound 0.06325 µM)
LK-2,0.193,0.213,0.208,0.231,0.2,0.505,0.543,0.558,0.573,0.465,0.563,0.681,0.586,0.642,0.175,0.257,0.189,0.2,0.194,
RERF-LC-KJ,1.02,1.25,1.35,1.4,1.14,0.642,0.507,0.51,0.468,0.528,1.07,1.03,0.996,1.21,0.55,0.574,0.689,0.626,0.525,1.05
HCC-44,0.949,1.1,1.5,0.972,1.14,0.524,0.653,0.968,0.786,0.598,,1.01,0.925,1.01,0.558,0.459,0.676,0.64,0.665,
IA-LM,,,,,,0.419,0.395,0.358,0.331,0.402,,,,,,,,,,
NCI-H1755,0.435,0.497,0.499,0.441,0.334,0.371,0.481,0.472,0.454,0.451,0.423,0.49,0.459,0.468,0.745,0.821,0.743,0.748,0.761,0.46
NCI-H2170,0.642,0.586,0.729,0.686,0.565,0.307,0.311,0.311,0.303,0.236,0.392,0.422,0.379,0.421,0.746,0.687,0.802,0.737,0.576,0.376
NCI-H441,0.32,0.275,0.332,0.396,0.339,0.431,0.546,0.48,0.476,0.428,0.223,0.237,0.232,0.221,0.651,0.751,0.898,0.684,0.47,0.233
LXF-289,0.635,0.734,0.89,,0.651,0.743,0.874,0.868,0.786,0.881,0.599,0.597,0.619,0.603,0.759,0.964,0.863,0.913,0.961,0.621
PC-14,0.18,0.121,0.201,0.144,0.216,0.698,0.723,0.957,0.706,0.553,0.509,0.562,0.527,0.474,0.716,0.893,1.02,0.795,0.695,0.462
ABC-1,0.407,0.609,0.533,0.622,0.861,0.818,,0.668,0.991,0.802,0.623,0.609,0.763,0.724,0.43,0.604,0.494,0.685,0.504,0.57
COR-L23,0.647,0.658,0.881,0.831,0.57,0.788,1.04,0.97,0.881,0.812,0.305,0.324,0.295,0.363,0.73,0.829,0.889,0.878,0.779,0.402
HCC-78,,,,,,0.206,,0.227,,0.246,0.486,0.498,0.472,0.526,0.352,0.397,0.377,0.379,0.411,0.504
NCI-H1648,,,,,,,,,,,0.257,0.239,0.279,0.308,,0.24,0.266,0.231,0.294,0.328
NCI-H596,0.884,1.05,1.09,1.03,0.941,0.376,0.392,0.428,0.394,0.434,,,,,0.731,0.799,0.787,0.699,0.552,
SW 900,0.183,0.22,0.172,0.192,0.194,,,,,,0.517,0.576,0.587,0.604,0.597,0.715,0.665,0.584,0.614,0.592
NCI-H522,0.951,1.11,1.21,1.14,1.28,,,,,,0.961,1.11,1.03,0.909,0.648,0.831,0.769,0.744,0.69,0.924
A549,,,,,,0.457,0.546,0.589,0.631,0.412,,,,,,,,,,
HCC-366,,,,,,0.0687,0.181,0.128,0.175,0.137,0.342,0.652,0.413,0.409,0.895,0.862,1.1,0.904,0.636,0.393
NCI-H1299,,,,,,0.748,0.654,0.862,,0.558,,,,,,,,,,
Calu-6,,,,,,0.901,0.887,1.13,1.09,0.93,,,,,,,,,,
NCI-H1563,0.54,0.566,0.5,0.517,0.479,0.637,0.641,0.695,0.653,0.643,,,,,0.694,0.79,0.766,0.762,0.75,
NCI-H1703,,,,,,0.215,0.208,0.245,0.224,0.204,,,,,,,,,,

# From the supplement of paper PMC10307832
